# Legend:
# [1] = target: T1, HCV genotype 1b (BK) NS3 modified enzyme with a R155K mutation (Hepatitis C virus genotype 1b, UniProt P26663, R1181K); test: HCV NS3 protease time-resolved fluorescence (TRF) assay, genotype 1b R155K; format: biochemical; details: Ki 1b R155K
# T1 construct: HCV genotype 1b (BK) NS3 modified enzyme
# Summary of the method: (§1)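 IC50 values derive from 4-parameter fitting of TRF signal after a 6 h room-temperature cleavage of 25 nM peptide substrate by NS3/NS4A that had been pre-incubated 10 min with compound.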
# [2] = target: HCV NS3 protease genotype 3a (3A-1) (Hepatitis C virus genotype 3a, UniProt Q81258); test: HCV NS3 protease time-resolved fluorescence (TRF) assay, genotype 3a; format: biochemical; details: Ki 3a
# Summary of the method: as §1
# [3] = genotype 1b (BK) NS3 R155K, single value
Structure (SMILES),"Ki [1, 3] [nM]",Ki [2] [nM],Ki ([1]; first of two values printed in the cell (not explained)) [nM],Ki ([1]; second of two values printed in the cell (not explained)) [nM]
"C=C[C@@H]1C[C@]1(NC(=O)[C@@H]1C[C@@H]2CN1C(=O)[C@H](C(C)(C)C)NC(=O)O[C@@H]1C[C@H]1CCCCCc1c(nc3ccccc3c1OCCCN(C)Cc1ncc[nH]1)O2)C(=O)NS(=O)(=O)C1(C)CC1 [Example 200, (1aR,5S,8S,10R,22aR)-5-tert-butyl-N-[(1R,2S)-2-ethenyl-1-{[(1-methylcyclopropyl)sulfonyl]carbamoyl}cylcopropyl]-17-{3-[(1H-imidazol-2-ylmethyl)(methyl)amino]propoxy}-3,6-dioxo-1,1a,3,4,5,6,9,10,18, 19,20,21,22,22a-tetradecahydro-8H-7,10-methanocyclopropa[18,19][1,10,3,6] dioxadiazacyclononadecino[11,12-b] quinoline-8-carboxamide]",0.074,0.96,,
"C=C[C@@H]1C[C@]1(NC(=O)[C@@H]1C[C@@H]2CN1C(=O)[C@H](C(C)(C)C)NC(=O)O[C@@H]1C[C@H]1CCCCCc1c(nc3ccccc3c1OCCCN(C)C)O2)C(=O)NS(=O)(=O)C1(C)CC1 [Example 114, (1aR,5S,8S,10R,22aR)-5-tert-butyl-17-[3-(dimethylamino)propoxy]-N-[(1R,2S)-2-ethenyl-1-{[(1-methylcyclopropyl)sulfonyl]carbamoyl}cyclopropyl]-3,6-dioxo-1,1a,3,4,5,6,9,10,18,19,20,21,22,22a-tetradecahydro-8H-7,10-methanocyclo propa[18,19][1,10,3,6]dioxadiazacyclo-nonadecino[11,12-b] quinoline-8-carboxamide]",0.051,0.25,,
"C=C[C@@H]1C[C@]1(NC(=O)[C@@H]1C[C@@H]2CN1C(=O)[C@H](C(C)(C)C)NC(=O)O[C@@H]1CCC[C@H]1CC/C=C/Cc1c(nc3ccccc3c1OCCCN1CCOCC1)O2)C(=O)NS(=O)(=O)C1(C)CC1 [Example 91, (3aR,7S,10S,12R,21E,24aS)-7-tert-butyl-N-[(1R,2S)-2-ethenyl-1-{[(1-methylcyclopropyl)sulfonyl]carbamoyl}cyclopropyl]-19-[3-(morpholin-4-yl)propoxy]-5,8-dioxo-1,2,3,3a,5,6,7,8,11,12,20,23,24,24a-tetradecahydro-10H-9,12-methanocyclopenta[18,19][1,10,3,6] dioxadiazacyclononadecino[11,12-b] quinoline-10-carboxamide]",0.16,1,,
"C=C[C@@H]1C[C@]1(NC(=O)[C@@H]1C[C@@H]2CN1C(=O)[C@H](C(C)(C)C)NC(=O)O[C@]1(C)C[C@H]1CCCCCc1c(nc3ccccc3c1OCCN1CCOCC1)O2)C(=O)NS(=O)(=O)C1(COC)CC1 [Example 99, (1aR,5S,8S,10R,22aR)-5-tert-butyl-N-[(1R,2S)-2-ethenyl-1-({[1-(methoxymethyl)cyclopropyl]sulfonyl}carbamoyl)cyclopropyl]-1a-methyl-17-[2-(morpholin-4-yl)ethoxy]-3,6-dioxo-1,1a, 3,4,5,6,9,10,18,19,20,21,22,22a-tetradecahydro-8H-7,10-methano-cyclopropa[18,19][1,10,3,6] dioxadiazacyclononadecino [11,12-b]quinoline-8-carboxamide]",0.28,2.8,,
"C=C[C@@H]1C[C@]1(NC(=O)[C@@H]1C[C@@H]2CN1C(=O)[C@H](C(C)(C)C)NC(=O)O[C@@H]1C[C@H]1CCCCCc1c(nc3ccccc3c1OCCN1CCC(C)(O)CC1)O2)C(=O)NS(=O)(=O)C1(C)CC1 [Example 175, (1aR,5S,8S,10R,22aR)-5-tert-butyl-N-[(1R,2S)-2-ethenyl-1-{[(1-methylcyclopropyl)sulfonyl]carbamoyl}cyclopropyl]-17-[2-(4-hydroxy-4-methylpiperidin-1-yl)ethoxy]-3,6-dioxo-1,1a,3,4,5,6,9,10,18,19,20,21,22,22a-tetradeca hydro-8H-7,10-methanocyclopropa[18,19][1,10,3,6] dioxadiazacyclononadecino[11,12-b] quinoline-8-carboxamide]",0.091,0.89,,
"C=C[C@@H]1C[C@]1(NC(=O)[C@@H]1C[C@@H]2CN1C(=O)[C@H](C(C)(C)C)NC(=O)O[C@@H]1C[C@H]1CCCCCc1c(nc3ccccc3c1OCCN1CC(O)C1)O2)C(=O)NS(=O)(=O)C1(C)CC1 [Example 174, (1aR,5S,8S,10R,22aR)-5-tert-butyl-N-[(1R,2S)-2-ethenyl-1-{[(1-methylcyclopropyl)sulfonyl]carbamoyl}cyclopropyl]-17-[2-(3-hydroxyazetidin-1-yl)ethoxy]-3,6-dioxo-1,1a,3,4,5,6,9,10,18,19,20,21,22,22a-tetradecahydro-8H-7,10-methanocyclopropa[18,19][1,10,3,6] dioxadiazacyclononadecino[11,12-b] quinoline-8-carboxamide]",0.057,1.1,,
"C=C[C@@H]1C[C@]1(NC(=O)[C@@H]1C[C@@H]2CN1C(=O)[C@H](C(C)(C)C)NC(=O)O[C@@H]1C[C@H]1CCCCCc1c(nc3ccccc3c1OCCCNC(C)COC)O2)C(=O)NS(=O)(=O)C1(C)CC1 (stereo partly drawn) [Example 179, (1aR,5S,8S,10R,22aR)-5-tert-butyl-N-[(1R,2S)-2-ethenyl-1-{[(1-methylcyclopropyl)sulfonyl]carbamoyl}cyclopropyl]-17-{3-[(1-methoxypropan-2-yl)amino]propoxy}-3,6-dioxo-1,1a,3,4,5,6,9,10,18,19,20,21,22,22a-tetradecahydro-8H-7,10-methanocyclopropa[18,19][1,10,3,6] dioxadiazacyclononadecino[11,12-b] quinoline-8-carboxamide]",0.034,0.58,,
"C=C[C@@H]1C[C@]1(NC(=O)[C@@H]1C[C@@H]2CN1C(=O)[C@H](C(C)(C)C)NC(=O)O[C@@H]1CCC[C@H]1CC/C=C/Cc1c(nc3ccccc3c1OCCCN1CCCCC1)O2)C(=O)NS(=O)(=O)C1CC1 [Example 45, (3aR,7S,10S,12R,21E,24aS)-7-tert-butyl-N-{(1R,2S)-1-[(cyclopropylsulfonyl)carbamoyl]-2-ethenylcyclopropyl}-5,8-dioxo-19-[3-(piperidin-1-yl)propoxy]-1,2,3,3a,5,6,7,8,11, 12,20,23,24,24a-tetradecahydro-10H-9,12-methanocyclopenta[18,19][1,10,3,6]dioxa diazacyclononadecino[11,12-b]quinoline-10-carboxamide]",0.1,0.5,,
"C=C[C@@H]1C[C@]1(NC(=O)[C@@H]1C[C@@H]2CN1C(=O)[C@H](C1CCCC1)NC(=O)O[C@@H]1CCC[C@H]1CC/C=C/Cc1c(nc3ccccc3c1OCCO)O2)C(=O)NS(=O)(=O)C1CC1 [Example 69, (3aR,7S,10S,12R,21E,24aS)-7-cyclopentyl-N-{(1R,2S)-1-[(cyclopropylsulfonyl)carbamoyl]-2-ethenylcyclopropyl}-19-(2-hydroxyethoxy)-5,8-dioxo-1,2,3,3a,5,6,7,8,11,12,20,23,24,24a-tetradecahydro-10H-9,12-methanocyclopenta[18,19][1,10,3,6]dioxadiazacyclononadecino[11,12-b]quinoline-10-carboxamide]",< 0.016,1.8,,
"C=C[C@@H]1CC1(NC(=O)[C@@H]1C[C@@H]2CN1C(=O)[C@H](C1CCCCC1)NC(=O)O[C@@H]1C[C@H]1CCCCCc1c(nc3ccccc3c1OC1CCN(CCOC(F)(F)F)CC1)O2)C(=O)NS(=O)(=O)C1(C)CC1 (stereo partly drawn) [Example 262, potassium {[(1R,2S)-1-({[(1aR,5S,8S,10R,22aR)-5-cyclohexyl-3,6-dioxo-17-({1-[2-(trifluoromethoxy)ethyl]piperidin-4-yl}oxy)-1,1a,3,4,5,6,9,10,18,19,20,21,22,22a-tetradecahydro-8H-7,10-methanocyclopropa[18,19][1,10,3,6]dioxadiazacyclononadecino[11,12-b]quinolin-8-yl]carbonyl}amino)-2-ethenylcyclopropyl]carbonyl}[(1-methylcyclopropyl)sulfonyl]azanide]",,1.2,0.018,0.12
"CCOc1c2c(nc3ccccc13)O[C@@H]1C[C@@H](C(=O)N[C@]3(C(=O)NS(=O)(=O)C4CC4)C[C@H]3CC)N(C1)C(=O)[C@H](C1CCCC1)NC(=O)O[C@@H]1CCC[C@H]1CC/C=C/C2 [Example 2, (3aR,7S,10S,12R,21E,24aS)-7-cyclopentyl-N-{(1R,2R)-1-[(cyclopropylsulfonyl)carbamoyl]-2-ethylcyclopropyl}-19-ethoxy-5,8-dioxo-1,2,3,3a,5,6,7,8,11,12,20,23,24,24a-tetradecahydro-10H-9,12-methanocyclopenta[18,19][1,10,3,6] dioxadiazacyclononadecino[11,12-b] quinoline-10-carboxamide]",2.7,31,,
"C=C[C@@H]1C[C@]1(NC(=O)[C@@H]1C[C@@H]2CN1C(=O)[C@H](C(C)(C)C)NC(=O)O[C@@H]1C[C@H]1CCCCCc1c(nc3ccccc3c1OC[C@H]1CNCCO1)O2)C(=O)NS(=O)(=O)C1(C)CC1 [Example 221, (1aR,5S,8S,10R,22aR)-5-tert-butyl-N-[(1R,2S)-2-ethenyl-1-{[(1-methylcyclopropyl)sulfonyl]carbamoyl}cyclopropyl]-17-[(2R)-morpholin-2-ylmethoxy]-3,6-dioxo-1,1a,3,4,5,6,9,10,18,19,20,21,22,22a-tetradecahydro-8H-7,10-methanocyclopropa[18,19][1,10,3,6]dioxadiazacyclononadecino[11,12-b]quinoline-8-carboxamide]",0.05,1.4,,
